Paper PMC8399023 (Molecules, 2021)
≈ marks a conversion by molar mass, not a printed value.

Conditions: 24 h, pH 7.4

- Solubility: 277 µg/mL (≈ 867 µM)
Structure (SMILES): CC(=O)N1CCC(NC(=O)NC23CC4CC(CC(C4)C2)C3)CC1 [AR9281]
